From patent publication US9353107B2 (Aurigene Discovery Technologies Limited, priority 2012, dated 2016)
Where a name gives a salt, the structure may show the parent alone.

Target: T1, recombinant human ALK enzyme (ALK WT) (Homo sapiens, UniProt Q9UM73)
T1 construct: purchased Carna Biosciences 08-518
Assay: ALK WT cell free enzymatic assay (TR-FRET)
Type: biochemical
Details: 1 μM ATP; for IC50: 10 point dose response; for inhibition at 0.1 µM: compound at 100 nM; for inhibition at 0.1 µM / inhibition at 1 µM: 30 min pre-incubation; for inhibition at 1 µM: compound at 1 μM
Method in brief: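 Recombinant human ALK with 40 nM Ultra Light Poly GT, 1 μM ATP and Eu anti-phosphotyrosine antibody, 1% DMSO, pH 7.1 HEPES; 30 min enzyme-compound pre-incubation, then 30 min reaction. TR-FRET 665/615 ratio; percent inhibition at 100 nM and 1 μM, IC50 from 10-point sigmoidal fit.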

T1 sequence (Q9UM73 1058-1620 limits assumed): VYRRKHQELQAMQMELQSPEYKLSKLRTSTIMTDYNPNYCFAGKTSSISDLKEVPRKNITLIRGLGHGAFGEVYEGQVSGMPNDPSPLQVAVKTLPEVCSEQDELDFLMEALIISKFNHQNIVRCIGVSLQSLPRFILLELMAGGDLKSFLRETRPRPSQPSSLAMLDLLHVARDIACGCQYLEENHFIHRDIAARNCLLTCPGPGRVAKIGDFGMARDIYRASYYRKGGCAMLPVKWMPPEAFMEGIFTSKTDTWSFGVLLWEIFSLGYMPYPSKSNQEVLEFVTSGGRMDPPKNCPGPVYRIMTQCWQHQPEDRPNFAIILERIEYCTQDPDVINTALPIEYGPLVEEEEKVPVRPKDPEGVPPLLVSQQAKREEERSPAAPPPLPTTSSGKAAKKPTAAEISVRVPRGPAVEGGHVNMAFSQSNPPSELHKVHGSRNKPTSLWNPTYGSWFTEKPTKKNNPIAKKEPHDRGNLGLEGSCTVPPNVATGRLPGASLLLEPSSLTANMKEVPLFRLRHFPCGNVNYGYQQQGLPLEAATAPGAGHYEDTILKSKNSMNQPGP

| IC50 | inhibition at 0.1 µM | inhibition at 1 µM | SMILES |
| --- | --- | --- | --- |
| < 50 nM | 99% | 100% | CS(=O)(=O)Nc1cc(-c2cnc3[nH]cc(-c4cnn(CCc5ccccc5)c4)c3c2)ccc1N1CCNCC1 [Example 107, N-(5-(3-(1-phenethyl-1H-pyrazol-4-yl)-1H-pyrrolo[2,3-b]pyridin-5-yl)-2-(piperazin-1-yl)phenyl) methanesulfonamide hydrochloride] |
| < 50 nM | 83% | 96% | Cc1nn(Cc2cccc(F)c2)c(C)c1-c1c[nH]c2ncc(-c3cccc(N4CCN(CCO)CC4)c3)cc12 [Example 186, 2-(4-(3-(3-(1-(3-fluorobenzyl)-3,5-dimethyl-1H-pyrazol-4-yl)-1H-pyrrolo[2,3-b]pyridin-5-yl)phenyl)piperazin-1-yl)ethanol] |
| < 50 nM | 83% | 99% | Cc1cccc(Cn2cc(-c3c[nH]c4ncc(-c5ccc(N6CCN(C[C@H](C)O)CC6)nc5)cc34)cn2)c1 [Example 145, (S)-1-(4-(5-(3-(1-(3-methylbenzyl)-1H-pyrazol-4-yl)-1H-pyrrolo[2,3-b]pyridin-5-yl)pyridin-2-yl)piperazin-1-yl)propan-2-ol] |
| < 50 nM | 92% | 97% | C[C@H](O)CN1CCN(c2ccc(-c3cnc4[nH]cc(-c5cnn(Cc6cccc(O)c6)c5)c4c3)cn2)CC1 [Example 151, (S)-3-((4-(5-(6-(4-(2-hydroxypropyl)piperazin-1-yl)pyridin-3-yl)-1H-pyrrolo[2,3-b]pyridin-3-yl)-1H-pyrazol-1-yl)methyl)phenol] |
| < 50 nM | 99% | 100% | O=C(CO)N1CCN(c2ccc(-c3cnc4[nH]cc(-c5cnn(Cc6cccc(F)c6)c5)c4c3)cn2)CC1 [Example 154, 1-(4-(5-(3-(1-(3-fluorobenzyl)-1H-pyrazol-4-yl)-1H-pyrrolo[2,3-b]pyridin-5-yl)pyridin-2-yl)piperazin-1-yl)-2-hydroxyethanone] |
| < 50 nM | 99% | 100% | Cc1c(-c2c[nH]c3ncc(-c4ccc(C5CCNCC5)c(F)c4)cc23)cnn1Cc1cccc(F)c1 [Example 165, 5-(3-fluoro-4-(piperidin-4-yl)phenyl)-3-(1-(3-fluorobenzyl)-5-methyl-1H-pyrazol-4-yl)-1H-pyrrolo[2,3-b]pyridine] |
| < 50 nM | 94% | 98% | CS(=O)(=O)Nc1cc(-c2cnc3[nH]cc(-c4cnn(Cc5cccc(F)c5)c4)c3c2)ccc1N1CCN(CC(N)=O)CC1 [Example 110, 2-(4-(4-(3-(1-(3-fluorobenzyl)-1H-pyrazol-4-yl)-1H-pyrrolo[2,3-b]pyridin-5-yl)-2-(methylsulfonamido)phenyl)piperazin-1-yl)acetamide] |
| < 50 nM | 92% | 94% | O=C(CO)N1CCN(c2ccc(-c3cnc4[nH]cc(-c5cnn(Cc6cccc(F)c6)c5)c4c3)cc2)CC1 [Example 128, 1-(4-(4-(3-(1-(3-fluorobenzyl)-1H-pyrazol-4-yl)-1H-pyrrolo[2,3-b]pyridin-5-yl)phenyl)piperazin-1-yl)-2-hydroxyethanone] |
| > 250 nM | 23% | 71% | Fc1cc(-c2cnc3[nH]cc(-c4ccn(CCc5ccccc5)n4)c3c2)ccc1C1CCNCC1 [Example 168, 5-(3-fluoro-4-(piperidin-4-yl)phenyl)-3-(1-phenethyl-1H-pyrazol-3-yl)-1H-pyrrolo[2,3-b]pyridine] |
| < 50 nM | 98% | 100% | C[C@H](O)CN1CCN(c2ccc(-c3cnc4[nH]cc(-c5cnn(Cc6cccc(F)c6)c5)c4c3)cc2)CC1 [Example 104, (S)-1-(4-(4-(3-(1-(3-fluorobenzyl)-1H-pyrazol-4-yl)-1H-pyrrolo[2,3-b]pyridin-5-yl)phenyl)piperazin-1-yl)propan-2-ol] |
| < 50 nM | 97% | 99% | NC(=O)CN1CCN(c2ccc(-c3cnc4[nH]cc(-c5cnn(Cc6cc(F)cc(F)c6)c5)c4c3)cn2)CC1 [Example 136, 2-(4-(5-(3-(1-(3,5-difluorobenzyl)-1H-pyrazol-4-yl)-1H-pyrrolo[2,3-b]pyridin-5-yl)pyridin-2-yl)piperazin-1-yl)acetamide] |

The remaining lines, values behind:

| SMILES | IC50 | inhibition at 0.1 µM | inhibition at 1 µM |
| --- | --- | --- | --- |
| Cc1c(-c2c[nH]c3ncc(-c4ccc(N5CCNCC5)cc4)cc23)cnn1Cc1cccc(F)c1 [Example 44, 3-(1-(3-fluorobenzyl)-5-methyl-1H-pyrazol-4-yl)-5-(4-(piperazin-1-yl)phenyl)-1H-pyrrolo[2,3-b]pyridine hydrochloride] | < 50 nM | 95% | 100% |
| CS(=O)(=O)Nc1cc(-c2cnc3[nH]cc(-c4cnn(Cc5cccc(F)c5)c4)c3c2)ccc1N1CCOCC1 [Example 17, N-(5-(3-(1-(3-fluorobenzyl)-1H-pyrazol-4-yl)-1H-pyrrolo[2,3-b]pyridin-5-yl)-2-morpholinophenyl)methanesulfonamide] | – | 13% | 53% |
| Cc1nn(Cc2cccc(F)c2)c(C)c1-c1c[nH]c2ncc(-c3cccc(N4CCNCC4)c3)cc12 [Example 38, 3-(1-(3-fluorobenzyl)-3,5-dimethyl-1H-pyrazol-4-yl)-5-(3-(piperazin-1-yl)phenyl)-1H-pyrrolo[2,3-b]pyridine] | < 50 nM | 87% | 99% |
| COc1ccc(-c2cnc3[nH]c(C4CC4)c(-c4c(C)nn(Cc5cccc(F)c5)c4C)c3c2)cc1NS(C)(=O)=O [Example 30, N-(5-(2-cyclopropyl-3-(1-(3-fluorobenzyl)-3,5-dimethyl-1H-pyrazol-4-yl)-1H-pyrrolo[2,3-b]pyridin-5-yl)-2-methoxyphenyl)methanesulfonamide] | – | 21% | 21% |
| Cc1nn(Cc2cc(F)cc(F)c2)c(C)c1-c1c[nH]c2nc(C3CC3)c(-c3ccc(N4CCNCC4)cc3)cc12 [Example 60, 6-cyclopropyl-3-(1-(3,5-difluorobenzyl)-3,5-dimethyl-1H-pyrazol-4-yl)-5-(4-(piperazin-1-yl)phenyl)-1H-pyrrolo[2,3-b]pyridine hydrochloride] | – | 9% | 10% |
| Cc1nn(Cc2cccc(F)c2)c(C)c1-c1c[nH]c2ncc(-c3ccc(NC4CCNCC4)cc3)cc12 [Example 101, N-(4-(3-(1-(3-fluorobenzyl)-3,5-dimethyl-1H-pyrazol-4-yl)-1H-pyrrolo[2,3-b]pyridin-5-yl)phenyl)piperidin-4-amine] | < 50 nM | 99% | 100% |
| Cc1nn(Cc2cc(F)cc(F)c2)c(C)c1-c1c[nH]c2ncc(-c3ccc(N4CCNCC4)cc3)cc12 [Example 43, 3-(1-(3,5-difluorobenzyl)-3,5-dimethyl-1H-pyrazol-4-yl)-5-(4-(piperazin-1-yl)phenyl)-1H-pyrrolo[2,3-b]pyridine hydrochloride] | < 50 nM | 92% | 99% |
| COc1ccc(-c2cnc3[nH]cc(-c4cnn(Cc5cc(F)ccc5F)c4)c3c2)cc1NS(C)(=O)=O [Example 70, N-(5-(3-(1-(2,5-difluorobenzyl)-1H-pyrazol-4-yl)-1H-pyrrolo[2,3-b]pyridin-5-yl)-2-methoxyphenyl)methanesulfonamide] | < 50 nM | 91% | 99% |
| Cc1nn(Cc2cccc(C#N)c2)c(C)c1-c1c[nH]c2ncc(-c3ccc(N4CCNCC4)cc3)cc12 [Example 48, 3-((3,5-dimethyl-4-(5-(4-(piperazin-1-yl)phenyl)-1H-pyrrolo[2,3-b]pyridin-3-yl)-1H-pyrazol-1-yl)methyl)benzonitrile hydrochloride] | 50 to 250 nM | 52% | 83% |
| Cc1nn(Cc2cccc(F)c2)c(C)c1-c1c[nH]c2ncc(-c3cnc(O)c(NS(C)(=O)=O)c3)cc12 [Example 66, N-(5-(3-(1-(3-fluorobenzyl)-3,5-dimethyl-1H-pyrazol-4-yl)-1H-pyrrolo[2,3-b]pyridin-5-yl)-2-hydroxypyridin-3-yl)methanesulfonamide] | – | 38% | 95% |
| COc1cc(N2CCNCC2)ccc1-c1cnc2[nH]cc(-c3c(C)nn(Cc4cccc(F)c4)c3C)c2c1 [Example 61, 3-(1-(3-fluorobenzyl)-3,5-dimethyl-1H-pyrazol-4-yl)-5-(2-methoxy-4-(piperazin-1-yl)phenyl)-1H-pyrrolo[2,3-b]pyridine hydrochloride] | < 50 nM | 73% | 96% |
| Cc1nn(Cc2cccc(F)c2)c(C)c1-c1c[nH]c2ncc(-c3ccc(OCCCN(C)C)c(NS(C)(=O)=O)c3)cc12 [Example 26, N-(2-(3-(dimethylamino)propoxy)-5-(3-(1-(3-fluorobenzyl)-3,5-dimethyl-1H-pyrazol-4-yl)-1H-pyrrolo[2,3-b]pyridin-5-yl)phenyl)methanesulfonamide] | < 50 nM | 96% | 100% |
| COc1cccc(Cn2cc(-c3c[nH]c4ncc(-c5ccc(C6CCNCC6)cc5)cc34)cn2)c1 [Example 87, 3-(1-(3-methoxybenzyl)-1H-pyrazol-4-yl)-5-(4-(piperidin-4-yl)phenyl)-1H-pyrrolo[2,3-b]pyridine] | < 50 nM | 84% | 99% |
| CS(=O)(=O)Nc1cccc(-c2cnc3[nH]cc(-c4cnn(Cc5cccc(N)c5)c4)c3c2)c1 [Example 8, N-(3-(3-(1-(3-aminobenzyl)-1H-pyrazol-4-yl)-1H-pyrrolo[2,3-b]pyridin-5-yl)phenyl) methane sulfonamide] | < 50 nM | 81% | 97% |
